Measured values taken from patent US20120004244A1, “Bis Aromatic Compounds for Use as LTC4 Synthase Inhibitors” (BIOLIPOX AB, priority 2009, published 2012).

The compounds below were run against T1, Recombinant human LTC4 synthase (Homo sapiens, UniProt Q16873) (assay: LTC4 synthase in vitro assay (LTA4 to LTC4, HTRF detection)). Conditions: not given.
T1 construct: made in house; host or cells: Pichia pastoris ('Piccia pastoralis' [sic])
T1 sequence (Q16873 1-150): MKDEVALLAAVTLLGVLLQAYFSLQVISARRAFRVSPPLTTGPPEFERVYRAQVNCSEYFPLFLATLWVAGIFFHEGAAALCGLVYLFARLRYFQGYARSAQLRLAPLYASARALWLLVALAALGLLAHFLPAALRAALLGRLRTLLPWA
Assay type: biochemical
Summary of the method: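 Purified recombinant human LTC4 synthase expressed in Pichia (0.5 μg/mL total protein) was preincubated with inhibitor at 10 μM final for 10 min at room temperature in PBS pH 7.4 with 5 mM GSH. LTA4 was then added at 2.5 μM final, and after 5 min at room temperature LTC4 was detected by HTRF.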
`CN(c1ccc(Cl)cc1)c1ccc(C(=O)c2ccc(Oc3ccc(F)c(F)c3)c(C(=O)O)n2)cc1` [9:2] was tested, and the IC50 was 834 nM. `COc1ccc(C(=O)Nc2ccc(C(=O)c3ccc(N(C)c4ccc(Cl)cc4)cn3)cc2C(=O)O)cc1` [3:4, 5-{5-[(4-Chlorophenyl)(methyl)amino]picolinoyl}-2-(4-methoxybenzamido)-benzoic acid] was tested, and the IC50 was 23 nM. `Cc1cn(-c2ccc(C(=O)c3ccc(N(C)c4ccc(Cl)cc4)cn3)cc2C(=O)O)c(-c2ccccc2)n1` [19:1, 5-{5-[(4-Chlorophenyl)(methyl)amino]picolinoyl}-2-(4-methyl-2-phenylimidazol-1-yl)benzoic acid] was tested, and the IC50 was 235 nM. With `CN(c1ccc(Cl)cc1)c1ccc(C(=O)c2ccc(OCc3ccccc3)c(C(=O)O)c2)nc1` [12:7, 2-Benzyloxy-5-{5-[(4-chlorophenyl)(methyl)amino]picolinoyl}benzoic acid] the IC50 was 375 nM. With `O=C(Nc1ccc(C(=O)c2ccc(N(CC3CC3)c3ccc(Cl)cc3)cn2)cc1C(=O)O)c1ccc2c(c1)OCO2` [3:9, 5-{5-[(4-Chlorophenyl)(cyclopropylmethyl)amino]picolinoyl}-2-(3,4-methylene-dioxybenzamido)benzoic acid] the IC50 was 21 nM. `CN(c1ccc(Cl)cc1)c1ccc(C(=O)c2ccc(C(=O)C3(c4ccccc4)CC3)c(C(=O)O)c2)nc1` [5:19] was tested, and the IC50 was 32 nM. In the case of `O=C(c1ccc(Oc2ccccc2)c(C(=O)O)c1)c1ccc(-c2cccc(C(F)(F)F)c2)cn1` [7:3, 2-Phenoxy-5-[5-(3-trifluoromethylphenyl)picolinoyl]benzoic acid], the IC50 is reported as 700 nM. `O=C(c1ccc(NS(=O)(=O)c2ccc(Cl)cc2)c(C(=O)O)c1)c1ccc(N(CC2CC2)c2ccc(Cl)cc2)cn1` [4:6, 2-(4-Chlorophenylsulfonamido)-5-{5-[(4-chlorophenyl)(cyclopropylmethyl)-amino]picolinoyl}benzoic acid] showed an IC50 of 17 nM. In the case of `O=C(c1ccc(Oc2ccccc2Oc2ccccc2Cl)c(C(=O)O)c1)c1ccc(N(CC2CC2)c2ccc(Cl)cc2)cn1` [1:45, 2-[2-(2-Chlorophenoxy)phenoxy]-5-{5-[(4-chlorophenyl)(cyclopropylmethyl)amino]picolinoyl}benzoic acid], the IC50 is reported as 32 nM. Compound `CS(=O)(=O)c1ccc(Oc2ccc(C(=O)c3ccc(N(CC4CC4)c4ccc(Cl)cc4)cn3)cc2C(=O)O)cc1` [1:37, 5-{5-[(4-Chlorophenyl)(cyclopropylmethyl)amino]picolinoyl}-2-(4-methylsulfonylphenoxy)benzoic acid] has an IC50 of 300 nM. With `CN(c1ccc(Cl)cc1)c1ccc(C(=O)c2ccc(C(=O)c3cccc(OC(F)(F)F)c3)c(C(=O)O)c2)nc1` [5:28] the IC50 was 60 nM. `O=C(c1ccc(Oc2ccccc2)c(C(=O)O)c1)c1ccc(OCc2ccccc2C(F)(F)F)cn1` [11:7, 2-Phenoxy-5-[5-(2-trifluoromethylbenzyloxy)picolinoyl]benzoic acid] showed an IC50 of 931 nM. `CN(c1ccc(Cl)cc1)c1ccc(C(=O)c2ccc(Oc3ccccc3)c(C(=O)O)c2)nc1` [1:1, 5-{5-[(4-Chlorophenyl)(methyl)amino]picolinoyl}-2-phenoxybenzoic acid] gave an IC50 of 110 nM. For `CN(c1ccc(Cl)cc1)c1ccc(C(=O)c2ccc(-c3ccccc3OCC3CC3)c(C(=O)O)c2)nc1` [21:5, 4-{5-[(4-Chlorophenyl)(methyl)amino]picolinoyl}-2′-(cyclopropylmethoxy)-biphenyl-2-carboxylic acid], the IC50 was 384 nM. For `COc1ccc(C(=O)c2ccc(C(=O)c3ccc(N(CC(F)(F)F)c4ccc(Cl)cc4F)cn3)cc2C(=O)O)cc1` [5:6, 5-{5-[(4-Chloro-2-fluorophenyl)(2,2,2-trifluoroethyl)amino]picolinoyl}-2-(4-methoxybenzoyl)benzoic acid], the IC50 was 401 nM. Compound `CN(c1ccc(Cl)cc1)c1ccc(C(=O)c2ccc(C(=O)c3cccs3)c(C(=O)O)c2)nc1` [5:20, 5-{5-[(4-Chlorophenyl)(methyl)amino]picolinoyl}-2-(2-thienylcarbonyl)benzoic acid] has an IC50 of 104 nM. Work on `O=C(c1ccc(Oc2ccccc2)c(C(=O)O)c1)c1ccc(OCc2ccc(C(F)(F)F)cc2)cn1` [11:6, 2-Phenoxy-5-[5-(4-trifluoromethylbenzyloxy)picolinoyl]benzoic acid] yielded an IC50 of 351 nM. `CCOc1ccc(C(=O)c2ccc(C(=O)c3ccc(N(C)c4ccc(Cl)cc4)cn3)cc2C(=O)O)cc1` [5:9, 5-{5-[(4-Chlorophenyl)(methyl)amino]picolinoyl}-2-(4-ethoxybenzoyl)benzoic acid] was tested, and the IC50 was 101 nM. `CN(c1ccc(Cl)cc1)c1ccc(C(=O)c2ccc(NCc3ccc(F)cc3)c(C(=O)O)c2)nc1` [2:10, 5-{5-[(4-Chlorophenyl)(methyl)amino]picolinoyl}-2-(4-fluorobenzylamino)benzoic acid] was tested, and the IC50 was 157 nM. Work on `CN(c1ccc(Cl)cc1)c1ccc(C(=O)c2ccc(C(=O)C3CCCO3)c(C(=O)O)c2)nc1` (stereo not shown) [5:25, 5-{5-[(4-Chlorophenyl)(methyl)amino]picolinoyl}-2-tetrahydrofuran-2-carbonylbenzoic acid] yielded an IC50 of 860 nM. Work on `CC1(CN(c2ccc(C(=O)c3ccc(Oc4ccccc4F)c(C(=O)O)c3)nc2)c2ccc(Cl)cc2F)COC1` [1:41, 5-{5-[(4-Chloro-2-fluorophenyl)-(3-methyloxetan-3-ylmethyl)amino]picolinoyl}-2-(2-fluorophenoxy)benzoic acid] yielded an IC50 of 1320 nM. `CN(c1ccc(Cl)cc1)c1ccc(C(=O)c2ccc(-c3cc(Cl)ccc3Cl)c(C(=O)O)c2)nc1` [21:7, 2′,5′-Dichloro-4-{5-[(4-chlorophenyl)(methyl)amino]picolinoyl}biphenyl-2-carboxylic acid] gave an IC50 of 269 nM. `CN(c1ccc(Cl)cc1)c1ccc(C(=O)c2ccc(NC3CCC(F)(F)CC3)c(C(=O)O)c2)nc1` [2:15, 5-{5-[(4-Chlorophenyl)(methyl)amino]picolinoyl}-2-(4,4-difluorocyclohexylamino)benzoic acid] was tested, and the IC50 was 184 nM. `C#CCN(c1ccc(C(=O)c2ccc(Oc3ccccc3F)c(C(=O)O)c2)nc1)c1ccc(Cl)cc1F` [1:33, 5-{5-[(4-Chloro-2-fluorophenyl)(2-propynyl)amino]picolinoyl}-2-(2-fluorophenoxy)benzoic acid] showed an IC50 of 351 nM. `COc1ccc(C(=O)Nc2ccc(C(=O)c3ccc(N(C)c4ccc(Cl)cc4)cn3)cc2C(=O)O)c(C)c1` [3:32, 5-{5-[(4-Chlorophenyl)(methyl)amino]picolinoyl}-2-(4-methoxy-2-methylbenz-amido)benzoic acid] showed an IC50 of 42 nM. Work on `O=C(c1ccc(Oc2ccccc2CCCO)c(C(=O)O)c1)c1ccc(N(CC2CC2)c2ccc(Cl)cc2)cn1` [1:36, 5-{5-[(4-Chlorophenyl)(cyclopropylmethyl)amino]picolinoyl}-2-[2-(3-hydroxypropyl)phenoxy]benzoic acid] yielded an IC50 of 116 nM. Compound `CCc1ccc(N(C)c2ccc(C(=O)c3ccc(C(=O)c4ccccc4)c(C(=O)O)c3)nc2)cc1` [5:23] has an IC50 of 184 nM. Work on `COc1ccc(C(=O)Nc2ccc(C(=O)c3ccc(N(C)c4ccccc4)cn3)cc2C(=O)O)c(OC)c1` [3:34, 2-(2,4-Dimethoxybenzamido)-5-{5-[(methyl)(phenyl)amino]picolinoyl}benzoic acid] yielded an IC50 of 163 nM. Work on `Cc1cc(Cl)ccc1N(C)c1ccc(C(=O)c2ccc(C(=O)c3ccccc3)c(C(=O)O)c2)nc1` [5:22, 2-Benzoyl-5-{5-[(4-chloro-2-methylphenyl)(methyl)amino]picolinoyl}benzoic acid] yielded an IC50 of 442 nM. `CN(c1ccc(Cl)cc1)c1ccc(C(=O)c2ccc(Nc3ccc(C(F)(F)F)cc3)c(C(=O)O)c2)nc1` [2:1, 5-{5-[(4-Chlorophenyl)(methyl)amino]picolinoyl}-2-(4-trifluoromethylphenyl-amino)benzoic acid] was tested, and the IC50 was 53 nM. `COc1ccc(C(=O)c2ccc(C(=O)c3ccc(N(CC4CC4)c4ccc(Cl)cc4F)cn3)cc2C(=O)O)cc1` [5:5] gave an IC50 of 46 nM. For `CN(c1ccc(Cl)cc1)c1ccc(C(=O)c2ccc(NS(=O)(=O)c3ccc(Cl)cc3)c(C(=O)O)c2)nc1` [4:5, 5-{5-[(4-Chlorophenyl)(methyl)amino]picolinoyl}-2-(4-chlorophenylsulfonamido)-benzoic acid], the IC50 was 33 nM. With `COc1ccc(C(=O)c2ccc(C(=O)c3ccc(N(C)c4ccc(Cl)cc4)cn3)cc2C(=O)O)cc1` [5:3, 5-{5-[(4-Chlorophenyl)(methyl)amino]picolinoyl}-2-(4-methoxybenzoyl)benzoic acid] the IC50 was 50 nM. `COc1cccc(C(=O)Nc2ccc(C(=O)c3ccc(N(CC4CC4)c4ccc(Cl)cc4)cn3)cc2C(=O)O)c1` [3:23, 5-{5-[(4-Chlorophenyl)(cyclopropylmethyl)amino]picolinoyl}-2-(3-methoxy-benzamido)benzoic acid] showed an IC50 of 33 nM. In the case of `COc1cccc(C(=O)Nc2ccc(C(=O)c3ccc(N(C)c4ccc(Cl)cc4)cn3)cc2C(=O)O)c1OC` [3:27, 5-{5-[(4-Chlorophenyl)(methyl)amino]picolinoyl}-2-(2,3-dimethoxybenzamido)-benzoic acid], the IC50 is reported as 40 nM. In the case of `CN(c1ccc(Cl)cc1)c1ccc(C(=O)c2ccc(NCc3ccccc3)c(C(=O)O)c2)nc1` [2:3, 2-Benzylamino-5-{5-[(4-chlorophenyl)(methyl)amino]picolinoyl}benzoic acid], the IC50 is reported as 92 nM. `CN(c1ccc(Cl)cc1)c1ccc(C(=O)c2ccc(NS(=O)(=O)c3ccccc3)c(C(=O)O)c2)nc1` [4:1, 5-{5-[(4-Chlorophenyl)(methyl)amino]picolinoyl}-2-(phenylsulfonamido)benzoic acid] showed an IC50 of 39 nM. For `CN(c1ccc(Cl)cc1)c1ccc(C(=O)c2ccc(NC(=O)c3cccc4c3OC(F)(F)O4)c(C(=O)O)c2)nc1` [3:18, 5-{5-[(4-Chlorophenyl)(methyl)amino]picolinoyl}-2-[2,3-(difluoromethylene-dioxy)benzamido]benzoic acid], the IC50 was 112 nM.

Same assay, conditions: 5 min; total concentration of title compound in the assay 10 μM
Work on `CN(c1ccc(Cl)cc1)c1ccc(C(=O)c2ccc(Oc3ccc(F)c(F)c3)c(C(=O)O)n2)cc1` [9:2] yielded an inhibition at 10 µM of 94%. Compound `CN(c1ccc(Cl)cc1)c1ccc(C(=O)c2ccc(Oc3ccccc3)c(C(=O)O)c2)nc1` [1:1, 5-{5-[(4-Chlorophenyl)(methyl)amino]picolinoyl}-2-phenoxybenzoic acid] has an inhibition at 10 µM of 98%. For `CN(c1ccc(Cl)cc1)c1ccc(C(=O)c2ccc(Nc3ccc(C(F)(F)F)cc3)c(C(=O)O)c2)nc1` [2:1, 5-{5-[(4-Chlorophenyl)(methyl)amino]picolinoyl}-2-(4-trifluoromethylphenyl-amino)benzoic acid], the inhibition at 10 µM was 99%. In the case of `CN(c1ccc(Cl)cc1)c1ccc(C(=O)c2ccc(NS(=O)(=O)c3ccc(Cl)cc3)c(C(=O)O)c2)nc1` [4:5, 5-{5-[(4-Chlorophenyl)(methyl)amino]picolinoyl}-2-(4-chlorophenylsulfonamido)-benzoic acid], the inhibition at 10 µM is reported as 100%.

Same assay, conditions: compound concentration 3 μM
`CN(c1ccc(Cl)cc1)c1ccc(C(=O)c2ccc(NS(=O)(=O)c3ccccc3)c(C(=O)O)c2)nc1` [4:1, 5-{5-[(4-Chlorophenyl)(methyl)amino]picolinoyl}-2-(phenylsulfonamido)benzoic acid] gave an inhibition at 3 µM of 100%.
